Results from ChEMBL document CHEMBL1201862, “PubChem BioAssay data set” (2004).
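Briefly, cells in 96-well plates were exposed to five compound concentrations for 48 h, and endpoints were estimated by linear interpolation. The concentration for 50% growth inhibition is given as GI50.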 The source made the active and inactive calls. Cut-off read from the data, not from the text of the source: active = GI50 up to about 1.1 µM and inactive = higher.

Assays:
Experiment in all cases: inhibition of tumour cell growth, NCI panel, 48 h
[1] = test system: OVCAR-4
[2] = test system: MDA-MB-231
[3] = test system: EKVX
[4] = test system: MDA-N
[5] = test system: DU-145
[6] = test system: NCI/ADR-RES
[7] = test system: NCI-H23
[8] = test system: SW-620
[9] = test system: SN12C
[10] = test system: SF-268
[11] = test system: SK-OV-3
[12] = test system: UACC-62
[13] = test system: NCI-H460
[14] = test system: HOP-92
[15] = test system: UO-31
[16] = test system: SNB-19
[17] = test system: KM12
[18] = test system: SK-MEL-2
[19] = test system: M14
[20] = test system: SK-MEL-5
[21] = test system: HOP-62
[22] = test system: SK-MEL-28
[23] = test system: HCT-15
[24] = test system: OVCAR-8
[25] = test system: SR
[26] = test system: CCRF-CEM
[27] = test system: MDA-MB-435
[28] = test system: PC-3
[29] = test system: CAKI-1
[30] = test system: Hs-578T
[31] = test system: K562
[32] = test system: UACC-257
[33] = test system: MCF7
[34] = test system: RPMI-8226
[35] = test system: T47D
[36] = test system: MOLT-4
[37] = test system: LOX IMVI
[38] = test system: COLO 205
[39] = test system: SF-539
[40] = test system: TK-10
[41] = test system: NCI-H226
[42] = test system: HCC 2998
[43] = test system: HL-60
[44] = test system: OVCAR-5
[45] = test system: IGROV-1
[46] = test system: SNB-75
[47] = test system: 786-0
[48] = test system: ACHN
[49] = test system: SF-295
[50] = test system: HCT-116
[51] = test system: OVCAR-3
[52] = test system: A549
[53] = test system: NCI-H522
[54] = test system: U-251
[55] = test system: RXF 393
[56] = test system: HT-29
[57] = test system: A498
[58] = test system: Malme-3M

With `COc1ccc(OC)c(/C=C/c2cnnc3ccccc23)c1` the GI50 [1] was 5.48 µM (inactive), the GI50 [2] was 9.46 µM (inactive) and the GI50 [3] was 4.15 µM (inactive). For the same molecule, the GI50 [4] was 0.741 µM (active), the GI50 [5] was > 10 µM (inactive) and the GI50 [6] was 2.39 µM (inactive). The GI50 [7] was 4.8 µM (inactive), the GI50 [8] was 3.06 µM (inactive) and the GI50 [9] was 4.17 µM (inactive). For the same molecule, the GI50 [10] was 4.79 µM (inactive), the GI50 [11] was 5.5 µM (inactive) and the GI50 [12] was 3.74 µM (inactive). The GI50 [13] was 4.11 µM (inactive), the GI50 [14] was 3.89 µM (inactive) and the GI50 [15] was 5.08 µM (inactive). For the same molecule, the GI50 [16] was 6.46 µM (inactive), the GI50 [17] was 2.8 µM (inactive) and the GI50 [18] was 2.16 µM (inactive). The GI50 [19] was 5.21 µM (inactive), the GI50 [20] was 3.61 µM (inactive) and the GI50 [21] was 4.12 µM (inactive). The GI50 [22] was 8.47 µM (inactive), the GI50 [23] was 1.96 µM and the GI50 [24] was 7.5 µM (inactive). For the same molecule, the GI50 [25] was 1.51 µM (inactive), the GI50 [26] was 3.38 µM (inactive) and the GI50 [27] was 0.638 µM (active). For the same molecule, the GI50 [28] was 7.69 µM (inactive), the GI50 [29] was 4.61 µM (inactive) and the GI50 [30] was 1.43 µM (inactive). The GI50 [31] was 2.33 µM (inactive), the GI50 [32] was 3.39 µM (inactive) and the GI50 [33] was 1.85 µM (inactive). For the same molecule, the GI50 [34] was 3.16 µM (inactive), the GI50 [35] was > 10 µM (inactive) and the GI50 [36] was 2.65 µM (inactive). For the same molecule, the GI50 [37] was 3.48 µM (inactive), the GI50 [38] was 4.1 µM (inactive) and the GI50 [39] was 2.39 µM (inactive). The GI50 [40] was > 10 µM (inactive), the GI50 [41] was 5.73 µM (inactive) and the GI50 [42] was 5.27 µM (inactive). For the same molecule, the GI50 [43] was 2.79 µM (inactive), the GI50 [44] was > 10 µM (inactive) and the GI50 [45] was > 10 µM (inactive). The GI50 [46] was 4.19 µM (inactive), the GI50 [47] was 6.67 µM (inactive) and the GI50 [48] was > 10 µM (inactive). For the same molecule, the GI50 [49] was 5.4 µM (inactive), the GI50 [50] was 3.4 µM (inactive) and the GI50 [51] was 3.94 µM (inactive). For the same molecule, the GI50 [52] was 3.27 µM (inactive), the GI50 [53] was 3.66 µM (inactive) and the GI50 [54] was 5.19 µM (inactive). For the same molecule, the GI50 [55] was 2.25 µM (inactive) and the GI50 [56] was 5.31 µM (inactive).
`CC1C/C(=C\c2ccc(OC(=O)C(C)(C)C)cc2)C(=O)/C(=C/c2ccc(OC(=O)C(C)(C)C)cc2)C1` (stereo unspecified) was tested, and the GI50 [1] was 31.4 µM (inactive), the GI50 [2] was 59.3 µM (inactive) and the GI50 [3] was > 100 µM (inactive). For the same molecule, the GI50 [4] was 30.5 µM (inactive), the GI50 [5] was > 100 µM (inactive) and the GI50 [6] was > 100 µM (inactive). The GI50 [7] was 24 µM (inactive), the GI50 [8] was > 100 µM (inactive) and the GI50 [9] was 26.2 µM (inactive). The GI50 [10] was 87.7 µM (inactive), the GI50 [11] was > 100 µM (inactive) and the GI50 [12] was 95.5 µM (inactive). The GI50 [13] was > 100 µM (inactive), the GI50 [14] was > 100 µM (inactive) and the GI50 [16] was > 100 µM (inactive). The GI50 [17] was 26.2 µM (inactive), the GI50 [18] was 61 µM (inactive) and the GI50 [19] was > 100 µM (inactive). The GI50 [20] was 57.3 µM (inactive), the GI50 [21] was 41.2 µM (inactive) and the GI50 [22] was > 100 µM (inactive). The GI50 [23] was greater than 100 µM, the GI50 [24] was 36 µM (inactive) and the GI50 [25] was 22.3 µM (inactive). The GI50 [26] was 2.34 µM (inactive), the GI50 [27] was 46.5 µM (inactive) and the GI50 [28] was 72.4 µM (inactive). For the same molecule, the GI50 [29] was > 100 µM (inactive), the GI50 [30] was 49.3 µM (inactive) and the GI50 [31] was 84.7 µM (inactive). For the same molecule, the GI50 [32] was > 100 µM (inactive), the GI50 [33] was 45.5 µM (inactive) and the GI50 [57] was 33.6 µM (inactive). For the same molecule, the GI50 [35] was 59.3 µM (inactive), the GI50 [36] was 7.66 µM (inactive) and the GI50 [37] was 35.6 µM (inactive). The GI50 [38] was > 100 µM (inactive), the GI50 [39] was 39.5 µM (inactive) and the GI50 [40] was > 100 µM (inactive). For the same molecule, the GI50 [41] was 22.2 µM (inactive), the GI50 [42] was > 100 µM (inactive) and the GI50 [43] was 23.5 µM (inactive). For the same molecule, the GI50 [44] was > 100 µM (inactive), the GI50 [45] was 7.64 µM (inactive) and the GI50 [58] was > 100 µM (inactive). The GI50 [47] was 54.3 µM (inactive), the GI50 [48] was 69.3 µM (inactive) and the GI50 [49] was 81.5 µM (inactive). For the same molecule, the GI50 [50] was 61.2 µM (inactive), the GI50 [51] was 68.4 µM (inactive) and the GI50 [52] was 40.6 µM (inactive). The GI50 [53] was 4.29 µM (inactive), the GI50 [54] was 31 µM (inactive) and the GI50 [55] was 19.8 µM (inactive). The GI50 [56] was > 100 µM (inactive).
